This is an account of results in BindingDB's records for patent US20250353864 (Blossomhill Therapeutics, 2025).

Each structure is given as a SMILES string.

Experiment [1] has as its target Epidermal growth factor receptor [L858R,T790M,C797S] (Homo sapiens, UniProt P00533, C797S/L858R/T790M). Nature of the experiment: Biochemical Assays for Inhibition of Wild-Type and Mutant EGFRs. As for the experimental part:
(§1) Briefly, specific kinase/substrate pairs along with required cofactors were prepared in reaction buffer; 20 mM Hepes pH 7.5, 10 mM […], 1 mM EGTA, 0.02% Brij35, 0.02 mg/ml BSA, 0.1 mM Na3VO4, 2 mM DTT, 1% DMSO. Compounds were delivered into the reaction, followed […] later by addition of a mixture of ATP (Sigma, St. Louis MO) and 33P ATP (Perkin Elmer, Waltham MA) to a final concentration of 10 μM. Reactions were carried out at room temperature for 120 min, followed by spotting of the reactions onto P81 ion exchange filter paper (Whatman Inc., Piscataway, NJ). Unbound phosphate was removed by extensive washing of filters in 0.75% phosphoric acid. […] IC50 values and curve fits were obtained using Prism (GraphPad Software).

The target of experiment [2] is Epidermal growth factor receptor [T790M,L858R] (Homo sapiens, UniProt P00533, L858R/T790M). Described as above. The procedure: as §1
Chain of Epidermal growth factor receptor [T790M,L858R] (P00533 25-1210 T790M/L858R limits assumed): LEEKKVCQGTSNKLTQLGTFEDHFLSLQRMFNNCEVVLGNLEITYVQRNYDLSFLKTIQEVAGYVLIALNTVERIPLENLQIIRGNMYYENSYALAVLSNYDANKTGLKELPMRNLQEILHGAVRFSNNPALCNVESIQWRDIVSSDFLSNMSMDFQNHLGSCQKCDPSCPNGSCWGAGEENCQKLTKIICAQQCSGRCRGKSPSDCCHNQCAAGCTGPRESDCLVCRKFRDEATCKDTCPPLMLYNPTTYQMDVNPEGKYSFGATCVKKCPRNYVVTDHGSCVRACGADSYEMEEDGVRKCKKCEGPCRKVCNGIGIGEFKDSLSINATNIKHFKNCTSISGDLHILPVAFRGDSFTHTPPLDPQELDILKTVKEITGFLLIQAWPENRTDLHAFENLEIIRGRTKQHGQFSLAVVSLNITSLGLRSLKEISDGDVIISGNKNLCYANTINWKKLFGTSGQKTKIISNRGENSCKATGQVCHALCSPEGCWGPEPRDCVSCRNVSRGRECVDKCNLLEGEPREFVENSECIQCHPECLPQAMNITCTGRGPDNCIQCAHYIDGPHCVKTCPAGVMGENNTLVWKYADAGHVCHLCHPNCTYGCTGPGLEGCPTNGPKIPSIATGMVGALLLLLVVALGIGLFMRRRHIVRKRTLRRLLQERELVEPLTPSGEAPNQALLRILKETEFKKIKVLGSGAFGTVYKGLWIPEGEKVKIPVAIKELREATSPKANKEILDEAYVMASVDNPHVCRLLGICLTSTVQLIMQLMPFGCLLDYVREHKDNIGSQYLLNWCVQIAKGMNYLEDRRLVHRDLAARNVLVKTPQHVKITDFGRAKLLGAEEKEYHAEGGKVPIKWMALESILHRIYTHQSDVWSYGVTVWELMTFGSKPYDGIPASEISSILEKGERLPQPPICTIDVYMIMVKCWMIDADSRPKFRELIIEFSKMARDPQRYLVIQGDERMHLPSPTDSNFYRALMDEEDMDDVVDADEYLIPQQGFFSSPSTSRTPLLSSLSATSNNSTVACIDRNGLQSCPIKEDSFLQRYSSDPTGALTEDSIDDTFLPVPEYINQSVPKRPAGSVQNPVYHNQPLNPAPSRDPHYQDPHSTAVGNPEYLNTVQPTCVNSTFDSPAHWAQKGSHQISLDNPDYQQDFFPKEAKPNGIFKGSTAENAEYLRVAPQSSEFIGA
Experiment [3] concerns the target Epidermal growth factor receptor [L858R] (Homo sapiens, UniProt P00533, L858R). The experiment is described as above. As for the experimental part:
as §1

Experiment [4] has as its target Epidermal growth factor receptor (Homo sapiens, UniProt P00533). Described as above. The procedure: as §1
Experiment [5] concerns the target Dual specificity protein kinase CLK1 (Homo sapiens, UniProt P49759). Nature of the experiment: Inhibition of CLK, CLK2, CLK3 and CLK4 Kinase Activity Evaluated at Nanosyn. The procedure:
(§2) Table 3: Kinase protein and substrate were pre-diluted in the HEPES assay buffer (100 mM HEPES, pH 7.5, 0.01% Triton X-100, 0.1% BSA, 5 mM MgCl2, […] DTT, […], […] Beta-Glycerophosphate) dispensed into 384 well plate (5 μL per well). Control samples (0%-inhibition in the absence of inhibitor, DMSO only) and 100%-inhibition (in the absence of enzyme) were assembled in replicates of six and were used to calculate %-inhibition in the presence of compounds. Test compounds were added to the protein samples by acoustic dispensing (Labcyte Echo550). Concentration of DMSO was equalized to 1% in all samples. Reactions were initiated by addition of ATP by acoustic dispensing (Labcyte Echo550) and incubated according to assay specific incubation time. After incubation. 5 μL of Promega ADP-Glo reagent was added and incubated for 40 minutes. After 40 minutes, 10 uL of Promega kinase detection reagent was added. After 10 min of incubation with Kinase detection reagent, the luminescence was read on microplate reader (Biotek Synergy).

In experiment [6] the target is Dual specificity protein kinase CLK3 (Homo sapiens, UniProt P49761). The experiment is described as above. The procedure:
as §2

In experiment [7] the target is Dual specificity protein kinase CLK2 (Homo sapiens, UniProt P49760). Described as above. As for the experimental part:
as §2

Experiment [8] addresses Dual specificity protein kinase CLK4 (Homo sapiens, UniProt Q9HAZ1). The experiment is described as above. The procedure:
as §2

The IC50 is the concentration at which inhibition is half-maximal.

Chain of Epidermal growth factor receptor (P00533 whole entry): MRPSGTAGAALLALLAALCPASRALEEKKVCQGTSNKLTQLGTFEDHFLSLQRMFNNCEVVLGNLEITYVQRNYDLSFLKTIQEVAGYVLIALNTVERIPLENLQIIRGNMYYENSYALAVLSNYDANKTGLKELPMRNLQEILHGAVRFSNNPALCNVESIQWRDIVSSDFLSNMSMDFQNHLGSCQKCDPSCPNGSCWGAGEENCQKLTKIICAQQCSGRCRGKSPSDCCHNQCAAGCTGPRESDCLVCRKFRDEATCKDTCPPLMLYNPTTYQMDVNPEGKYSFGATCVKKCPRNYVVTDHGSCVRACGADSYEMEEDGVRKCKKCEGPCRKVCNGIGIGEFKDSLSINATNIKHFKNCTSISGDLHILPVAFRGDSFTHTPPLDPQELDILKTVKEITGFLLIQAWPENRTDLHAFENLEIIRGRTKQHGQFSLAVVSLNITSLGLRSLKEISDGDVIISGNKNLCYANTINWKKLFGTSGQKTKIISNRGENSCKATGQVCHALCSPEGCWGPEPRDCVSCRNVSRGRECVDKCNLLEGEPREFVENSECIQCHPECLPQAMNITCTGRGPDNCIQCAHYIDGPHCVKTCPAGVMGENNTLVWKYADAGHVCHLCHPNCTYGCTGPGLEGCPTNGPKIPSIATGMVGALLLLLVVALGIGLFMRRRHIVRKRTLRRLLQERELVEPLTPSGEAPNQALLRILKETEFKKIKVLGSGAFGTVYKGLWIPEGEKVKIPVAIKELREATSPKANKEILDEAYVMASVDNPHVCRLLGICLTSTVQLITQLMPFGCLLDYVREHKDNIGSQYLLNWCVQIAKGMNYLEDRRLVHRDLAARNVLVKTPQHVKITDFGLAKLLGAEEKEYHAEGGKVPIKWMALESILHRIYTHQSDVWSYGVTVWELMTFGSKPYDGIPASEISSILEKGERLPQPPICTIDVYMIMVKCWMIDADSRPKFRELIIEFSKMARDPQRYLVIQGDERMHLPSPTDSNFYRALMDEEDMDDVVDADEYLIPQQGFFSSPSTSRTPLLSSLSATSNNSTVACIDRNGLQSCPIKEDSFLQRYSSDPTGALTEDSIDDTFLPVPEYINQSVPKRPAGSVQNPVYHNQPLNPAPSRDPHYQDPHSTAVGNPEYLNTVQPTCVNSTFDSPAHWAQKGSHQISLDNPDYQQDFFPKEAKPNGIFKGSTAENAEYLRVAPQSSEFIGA
Chain of Epidermal growth factor receptor [L858R] (P00533 25-1210 L858R limits assumed): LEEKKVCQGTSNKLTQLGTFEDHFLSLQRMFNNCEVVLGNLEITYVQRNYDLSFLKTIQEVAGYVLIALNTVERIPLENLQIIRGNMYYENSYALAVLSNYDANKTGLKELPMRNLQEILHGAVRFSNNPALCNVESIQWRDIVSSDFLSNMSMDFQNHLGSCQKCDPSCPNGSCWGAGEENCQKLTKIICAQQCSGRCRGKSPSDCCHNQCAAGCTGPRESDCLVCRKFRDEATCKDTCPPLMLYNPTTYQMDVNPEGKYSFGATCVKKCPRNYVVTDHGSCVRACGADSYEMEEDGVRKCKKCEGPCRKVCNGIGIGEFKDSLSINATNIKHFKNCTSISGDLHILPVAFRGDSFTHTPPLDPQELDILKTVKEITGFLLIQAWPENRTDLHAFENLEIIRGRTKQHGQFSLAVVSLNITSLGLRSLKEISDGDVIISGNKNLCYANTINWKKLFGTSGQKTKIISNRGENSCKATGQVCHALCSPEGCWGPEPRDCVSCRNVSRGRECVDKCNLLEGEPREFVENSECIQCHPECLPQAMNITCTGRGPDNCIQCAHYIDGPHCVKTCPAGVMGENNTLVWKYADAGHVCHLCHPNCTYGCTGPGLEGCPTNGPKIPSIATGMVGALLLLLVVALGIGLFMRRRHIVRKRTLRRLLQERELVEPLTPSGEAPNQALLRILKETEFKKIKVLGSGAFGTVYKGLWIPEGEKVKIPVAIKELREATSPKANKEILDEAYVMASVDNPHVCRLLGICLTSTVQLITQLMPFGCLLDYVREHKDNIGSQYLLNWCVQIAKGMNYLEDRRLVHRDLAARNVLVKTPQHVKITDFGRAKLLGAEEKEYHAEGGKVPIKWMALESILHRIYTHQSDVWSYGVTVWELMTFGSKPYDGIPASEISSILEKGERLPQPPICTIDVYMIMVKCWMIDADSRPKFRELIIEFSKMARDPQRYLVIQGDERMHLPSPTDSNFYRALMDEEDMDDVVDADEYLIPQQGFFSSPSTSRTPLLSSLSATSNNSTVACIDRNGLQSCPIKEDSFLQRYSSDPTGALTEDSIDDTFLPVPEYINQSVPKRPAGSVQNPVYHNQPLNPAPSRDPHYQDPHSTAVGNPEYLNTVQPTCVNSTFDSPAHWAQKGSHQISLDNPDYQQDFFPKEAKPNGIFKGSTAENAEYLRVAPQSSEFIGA
Chain of Epidermal growth factor receptor [L858R,T790M,C797S] (P00533 25-1210 T790M/C797S/L858R limits assumed): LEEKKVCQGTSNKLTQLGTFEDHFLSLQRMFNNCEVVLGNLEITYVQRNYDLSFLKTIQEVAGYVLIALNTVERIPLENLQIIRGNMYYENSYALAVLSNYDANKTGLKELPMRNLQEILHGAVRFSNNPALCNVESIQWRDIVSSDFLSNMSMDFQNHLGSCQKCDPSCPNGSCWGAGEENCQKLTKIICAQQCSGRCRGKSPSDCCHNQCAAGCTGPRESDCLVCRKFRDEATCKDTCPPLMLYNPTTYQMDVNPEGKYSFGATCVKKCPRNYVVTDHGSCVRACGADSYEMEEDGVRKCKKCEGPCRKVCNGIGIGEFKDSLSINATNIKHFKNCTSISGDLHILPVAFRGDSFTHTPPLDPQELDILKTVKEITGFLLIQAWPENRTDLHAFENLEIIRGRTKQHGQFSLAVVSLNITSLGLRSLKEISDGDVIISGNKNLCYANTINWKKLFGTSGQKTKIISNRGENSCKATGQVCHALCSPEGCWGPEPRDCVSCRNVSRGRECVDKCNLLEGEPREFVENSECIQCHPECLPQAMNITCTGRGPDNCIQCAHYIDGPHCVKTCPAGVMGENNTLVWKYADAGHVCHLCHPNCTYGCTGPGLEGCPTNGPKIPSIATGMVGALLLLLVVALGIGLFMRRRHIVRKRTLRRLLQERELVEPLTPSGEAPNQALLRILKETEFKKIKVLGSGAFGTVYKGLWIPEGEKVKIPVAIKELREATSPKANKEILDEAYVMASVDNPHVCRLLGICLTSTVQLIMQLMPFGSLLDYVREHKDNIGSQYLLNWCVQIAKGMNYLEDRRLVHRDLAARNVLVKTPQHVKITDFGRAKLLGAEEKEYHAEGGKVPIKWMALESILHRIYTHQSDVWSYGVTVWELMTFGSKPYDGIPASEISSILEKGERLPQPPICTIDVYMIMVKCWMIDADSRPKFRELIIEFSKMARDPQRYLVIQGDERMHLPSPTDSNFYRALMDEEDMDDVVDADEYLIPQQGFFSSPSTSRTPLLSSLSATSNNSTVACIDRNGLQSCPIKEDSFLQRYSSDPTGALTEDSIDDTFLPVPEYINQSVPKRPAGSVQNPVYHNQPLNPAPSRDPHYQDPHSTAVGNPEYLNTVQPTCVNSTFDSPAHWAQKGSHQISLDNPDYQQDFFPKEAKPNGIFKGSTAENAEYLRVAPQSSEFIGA

`Cc1c2c(nn1[C@H]1CCN(C)C[C@@H]1O)OCCCOc1c(cnn1C)-c1ccc3[nH]nc(c3c1)/C=C/2` (racemic) [US20250353864, Example 83]: the IC50 in experiment [1] came to 5.29 nM; in experiment [2], 1.48 nM; in experiment [3], 19 nM; in experiment [4], 61.5 nM.
Turning to `Cc1nn(C)c2c1/C=C/c1n[nH]c3ccc(cc13)-c1cnn(C)c1CN(C)C[C@H](C)O2` (single isomer, unassigned) [US20250353864, Example 97], the IC50 is 28.5 nM in experiment [1], 10.8 nM in experiment [2], 132 nM in experiment [3] and 413 nM in experiment [4].
Regarding `CCOc1nn(CCO)c2c1/C=C/c1n[nH]c3ccc(cc13)-c1cnn(C)c1O[C@H](C)[C@H]1CCCN1C2` (single isomer, unassigned) [US20250353864, Example 241], the half-maximal inhibitory concentration (IC50) in experiment [1] was determined as 0.28 nM; in experiment [4] it was 0.4 nM.
In the case of `CCc1nn(C)c2c1/C=C/c1n[nH]c3ccc(cc13)-c1cnn(C)c1OCCCO2` [US20250353864, Example 10], the IC50 in experiment [1] was 42.2 nM; in experiment [3], 181 nM; in experiment [4], 973 nM.
Turning to `Cc1ccc2c(n1)/C=C/c1n[nH]c3ccc(cc13)-c1cnn(C)c1O[C@@H](C)CCO2` [US20250353864, Example 39], the IC50 in experiment [1] was 35.3 nM; in experiment [3], 222 nM; in experiment [4] it was 1070 nM.
With `Cc1nn(C)c2c1/C=C/c1n[nH]c3ccc(cc13)-c1c(C)nn(C)c1OCCN(C)C2` [US20250353864, Example 47], the IC50 in experiment [5] was determined as 9.92 nM; in experiment [6], 1000 nM; in experiment [7], 48.3 nM; in experiment [8], 2.7 nM; in experiment [1], 170 nM; in experiment [2], 79.3 nM. The molecule also registered a half-inhibitory concentration (IC50) in experiment [3] of 822 nM.
Take `Cc1c2c(nn1CCN1CCCC1)OCCOC(C)c1c(cnn1C)-c1ccc3[nH]nc(c3c1)/C=C/2` (stereo not given) [US20250353864, Example 84]: the IC50 in experiment [1] amounted to 28.2 nM; in experiment [2], 30.8 nM; in experiment [3], 285 nM; in experiment [4] it was 1080 nM.
The corresponding values for `Cc1c2c(nn1CCN1CCCC1)CN(C)C[C@H](C)Oc1c(cnn1C)-c1ccc3[nH]nc(c3c1)/C=C/2` [US20250353864, Example 89] are 0.45 nM, 0.06 nM, 4.66 nM and 64 nM.
In the case of `CCOc1nn(CCO)c2c1/C=C/c1n[nH]c3ccc(cc13)-c1cnn(C)c1OC1CCCN(C2)C1C` (stereo not given) [US20250353864, Example 242], the IC50 in experiment [1] came to 4.93 nM; in experiment [2] it was 9.27 nM; in experiment [3], 124 nM; in experiment [4] it was 381 nM.
